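Tested at 5 concentrations; 48 h exposure; 96-well plates; endpoints linearly interpolated, else capped at highest concentration. GI50 is the concentration that inhibits growth by half.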 Active and inactive are the calls of the source. No stated cut-off is given here; in the data, active = GI50 up to about 1.1 µM and inactive = higher.
How the values were obtained:
Assay in all cases: DTP human tumour cell line panel, 48 h
OVCAR-5 = test system: OVCAR-5
MDA-N = test system: MDA-N
UO-31 = test system: UO-31
HOP-62 = test system: HOP-62
HCT-116 = test system: HCT-116
ACHN = test system: ACHN
OVCAR-4 = test system: OVCAR-4
SF-295 = test system: SF-295
A549 = test system: A549
NCI-H522 = test system: NCI-H522
MCF7 = test system: MCF7
NCI/ADR-RES = test system: NCI/ADR-RES
RPMI-8226 = test system: RPMI-8226
SNB-19 = test system: SNB-19
OVCAR-8 = test system: OVCAR-8
CAKI-1 = test system: CAKI-1
SNB-75 = test system: SNB-75
EKVX = test system: EKVX
DU-145 = test system: DU-145
OVCAR-3 = test system: OVCAR-3

Row | Structure (SMILES) | GI50 (OVCAR-5) | GI50 (MDA-N) | GI50 (UO-31) | GI50 (HOP-62) | GI50 (HCT-116) | GI50 (ACHN) | GI50 (OVCAR-4) | GI50 (SF-295) | GI50 (A549) | GI50 (NCI-H522) | GI50 (MCF7) | GI50 (NCI/ADR-RES) | GI50 (RPMI-8226) | GI50 (SNB-19) | GI50 (OVCAR-8) | GI50 (CAKI-1) | GI50 (SNB-75) | GI50 (EKVX) | GI50 (DU-145) | GI50 (OVCAR-3)
1 | CC(C)OC(=O)[C@@H]1OC(C)(C)O[C@H]1C(=O)OC(C)C | > 100 µM (inactive) | > 100 µM (inactive) | > 100 µM (inactive) | > 100 µM (inactive) | > 100 µM (inactive) | > 100 µM (inactive) | > 100 µM (inactive) | > 100 µM (inactive) | > 100 µM (inactive) | > 100 µM (inactive) | > 100 µM (inactive) | > 100 µM (inactive) | > 100 µM (inactive) | > 100 µM (inactive) | > 100 µM (inactive) | > 100 µM (inactive) | > 100 µM (inactive) | > 100 µM (inactive) | > 100 µM (inactive) | –
2 | COCCOCCOC1=CC(=O)c2c(O)ccc(O)c2C1=O | – | 0.153 µM (active) | 1.62 µM (inactive) | 1.71 µM (inactive) | 0.307 µM (active) | 1.61 µM (inactive) | 1.73 µM (inactive) | 1.82 µM (inactive) | 1.75 µM (inactive) | 1.57 µM (inactive) | 0.555 µM (active) | 1.96 µM (inactive) | 1.37 µM (inactive) | 1.75 µM (inactive) | – | 0.729 µM (active) | 1.82 µM (inactive) | 2.86 µM (inactive) | 1.49 µM (inactive) | 1.44 µM (inactive)
3 | CC1(CNCc2ccccc2)CC(CCc2ccccc2)N(C(=O)c2ccc([N+](=O)[O-])cc2)C1Cc1ccc(O)cc1 (stereo not drawn) | 17.6 µM (inactive) | 12.3 µM (inactive) | 11.3 µM (inactive) | 15.8 µM (inactive) | 10.4 µM (inactive) | 12 µM (inactive) | 9.91 µM (inactive) | 11.2 µM (inactive) | 10.4 µM (inactive) | 8.79 µM (inactive) | 5.24 µM (inactive) | 14.7 µM (inactive) | 17.3 µM (inactive) | 14.7 µM (inactive) | 14.4 µM (inactive) | 12.9 µM (inactive) | – | 14.4 µM (inactive) | 14.7 µM (inactive) | 12.1 µM (inactive)
4 | Cc1ccc(C(=O)OC[C@H]2CC[C@@H](n3cc(N(C)C4CCCCC4)c(=O)[nH]c3=O)O2)cc1 | 26.6 µM (inactive) | 23.7 µM (inactive) | 13.9 µM (inactive) | 20.6 µM (inactive) | 16.7 µM (inactive) | 26.6 µM (inactive) | 30.9 µM (inactive) | 15.7 µM (inactive) | 28.7 µM (inactive) | 24.3 µM (inactive) | 22.1 µM (inactive) | 20 µM (inactive) | 31.4 µM (inactive) | 19.3 µM (inactive) | 28.1 µM (inactive) | 31.4 µM (inactive) | – | 38.9 µM (inactive) | > 100 µM (inactive) | 21.6 µM (inactive)
5 | CSC1=N/C(=C\c2cccs2)C(=O)N1CN1CCOCC1 | > 100 µM (inactive) | 59 µM (inactive) | 39.9 µM (inactive) | 95.7 µM (inactive) | 31.3 µM (inactive) | 37.2 µM (inactive) | 30.6 µM (inactive) | > 100 µM (inactive) | > 100 µM (inactive) | 30.1 µM (inactive) | 32.2 µM (inactive) | 14.3 µM (inactive) | 20 µM (inactive) | 45.6 µM (inactive) | 28.8 µM (inactive) | – | 37.5 µM (inactive) | 40.6 µM (inactive) | 65.9 µM (inactive) | > 100 µM (inactive)
6 | Cc1nc2ccc(C(F)(F)F)cc2nc1NCc1ccc(Cl)c(Cl)c1 | 13.1 µM (inactive) | 17.3 µM (inactive) | 15.9 µM (inactive) | 14.4 µM (inactive) | 16.4 µM (inactive) | 14.8 µM (inactive) | – | 17.3 µM (inactive) | 16.4 µM (inactive) | 14.8 µM (inactive) | 10 µM (inactive) | 19.9 µM (inactive) | 17.1 µM (inactive) | 18.4 µM (inactive) | 17.2 µM (inactive) | 18.8 µM (inactive) | 12.9 µM (inactive) | 14.1 µM (inactive) | 17.9 µM (inactive) | 13.3 µM (inactive)

From ChEMBL document CHEMBL1201862, “PubChem BioAssay data set” (2004)
